Experimental data: patent US11324725B2, “Compositions and methods for the inhibition of pruritus” (The United States of America, as represented by the …, priority 2017, dated 2022)
Entries after “also recorded” stand apart in the source; their conditions may differ. Where a SMILES comes first, the peptide text is derived from it. Bridges are numbered along the chain shown (N, C = ends). [ ]: non-standard residue; d: D form. dTic = O=C(O)[C@H]1Cc2ccccc2CN1; Cha = N[C@@H](CC1CCCCC1)C(=O)O

Assays:
hNpr1 = target: T1, hNpr1 (Homo sapiens, UniProt P16066); assay: GloSensor assay in 96-well format, HEK-hNpr1-cGMP-sensor cells; assay type: cell-based; details: 5 μM antagonist, increasing hNppa; GloSensor and membrane cyclase assays (FIGS. 5B-C)
T1 sequence (P16066 33-1061): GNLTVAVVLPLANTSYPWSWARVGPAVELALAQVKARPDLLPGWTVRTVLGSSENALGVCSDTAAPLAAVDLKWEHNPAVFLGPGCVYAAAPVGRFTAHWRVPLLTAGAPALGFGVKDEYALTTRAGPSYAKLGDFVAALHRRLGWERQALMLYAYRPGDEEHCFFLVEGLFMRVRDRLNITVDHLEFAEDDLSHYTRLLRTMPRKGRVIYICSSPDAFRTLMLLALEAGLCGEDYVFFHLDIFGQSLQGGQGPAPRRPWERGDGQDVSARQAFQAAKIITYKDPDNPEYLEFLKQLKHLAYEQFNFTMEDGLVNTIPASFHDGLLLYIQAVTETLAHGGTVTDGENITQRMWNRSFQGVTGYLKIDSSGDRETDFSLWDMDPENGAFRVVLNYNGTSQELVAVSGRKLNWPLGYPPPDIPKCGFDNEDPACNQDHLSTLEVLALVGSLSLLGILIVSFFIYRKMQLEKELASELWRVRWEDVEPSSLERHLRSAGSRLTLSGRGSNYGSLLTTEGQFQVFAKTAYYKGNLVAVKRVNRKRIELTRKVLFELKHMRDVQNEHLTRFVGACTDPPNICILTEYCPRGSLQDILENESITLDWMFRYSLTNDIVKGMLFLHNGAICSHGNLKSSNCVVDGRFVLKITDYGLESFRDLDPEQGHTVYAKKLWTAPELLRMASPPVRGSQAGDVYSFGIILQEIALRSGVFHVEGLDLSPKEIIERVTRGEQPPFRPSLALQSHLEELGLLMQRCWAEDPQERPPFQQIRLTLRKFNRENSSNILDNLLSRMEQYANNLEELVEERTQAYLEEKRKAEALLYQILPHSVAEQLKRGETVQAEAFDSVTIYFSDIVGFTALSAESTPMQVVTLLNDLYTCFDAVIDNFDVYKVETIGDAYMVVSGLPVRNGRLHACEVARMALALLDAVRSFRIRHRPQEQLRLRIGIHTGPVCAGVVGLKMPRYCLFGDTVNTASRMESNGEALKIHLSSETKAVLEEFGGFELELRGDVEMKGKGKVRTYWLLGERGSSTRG
Description: (§1) Before the measurement (24 hours in advance), 3×10^4 cells were seeded into white 96-well plates (PerkinElmer, Waltham, Mass.), coated with 0.1% poly(D-lysine), and assays conducted as recommended by the manufacturer (Promega). Medium was aspirated and cells were loaded for two hours at room temperature with 2% GoSensor™ reagent diluted in CO2-independent media (ThermoFisher) supplemented with 2 mM L-glutamine and 10% FBS (assay medium). Luminescence was measured on a BioTek Synergy™ NEO (Winooski, Vt.) plate reader at room temperature. After a baseline measurement of 3-5 minutes, assay medium as a control or assay medium with agonist was manually added, and luminescence was measured for 30 minutes at ˜ 1/60 Hz. For compounds tested for Npr1 and Npr2 inhibition, the compounds were added after baseline measurements, and luminescence was read for 5 minutes before addition of agonist. Luminescence was then normalized to baseline measurements and plotted against the time. Ligand-induced changes of cGMP production were quantified by determining the area under the curve. To determine efficacy and potency of agonists, ligand-induced changes were normalized to medium only addition and plotted against the ligand concentration. […] To quantify […] of compounds, compound-induced changes of agonist-induced cGMP production were normalized to vehicle controls, plotted against compound concentration, and fit with a four-parameter logistic regression. Effects of A-71915 on basal mNpr1 activity were fitted with a bell-shaped regression (equation indicated below).
Additional screens of the fifteen candidates corroborated hNpr1 inhibition. In particular, HEK-hNpr1-cGMP-sensor cells were seeded in 96-wells and stimulated with 60 pM hNppa 5 minutes after addition of candidate compounds or A-71915 and luminescence was measured for 30 minutes. Inhibitors were titrated to calculate apparent potency (IC50) and efficacy (Imax) of inhibition of hNppa-induced cGMP production.

mNpr1 = target: T2, mNpr1 (Mus musculus, UniProt P18293); assay: GloSensor assay, HEK-293 cells transiently expressing mNpr1 and pGS-40F; assay type: cell-based; details: no agonist
T2 construct: host or cells: HEK-293, transient co-transfection with pGS-40F
T2 sequence (P18293 29-1057): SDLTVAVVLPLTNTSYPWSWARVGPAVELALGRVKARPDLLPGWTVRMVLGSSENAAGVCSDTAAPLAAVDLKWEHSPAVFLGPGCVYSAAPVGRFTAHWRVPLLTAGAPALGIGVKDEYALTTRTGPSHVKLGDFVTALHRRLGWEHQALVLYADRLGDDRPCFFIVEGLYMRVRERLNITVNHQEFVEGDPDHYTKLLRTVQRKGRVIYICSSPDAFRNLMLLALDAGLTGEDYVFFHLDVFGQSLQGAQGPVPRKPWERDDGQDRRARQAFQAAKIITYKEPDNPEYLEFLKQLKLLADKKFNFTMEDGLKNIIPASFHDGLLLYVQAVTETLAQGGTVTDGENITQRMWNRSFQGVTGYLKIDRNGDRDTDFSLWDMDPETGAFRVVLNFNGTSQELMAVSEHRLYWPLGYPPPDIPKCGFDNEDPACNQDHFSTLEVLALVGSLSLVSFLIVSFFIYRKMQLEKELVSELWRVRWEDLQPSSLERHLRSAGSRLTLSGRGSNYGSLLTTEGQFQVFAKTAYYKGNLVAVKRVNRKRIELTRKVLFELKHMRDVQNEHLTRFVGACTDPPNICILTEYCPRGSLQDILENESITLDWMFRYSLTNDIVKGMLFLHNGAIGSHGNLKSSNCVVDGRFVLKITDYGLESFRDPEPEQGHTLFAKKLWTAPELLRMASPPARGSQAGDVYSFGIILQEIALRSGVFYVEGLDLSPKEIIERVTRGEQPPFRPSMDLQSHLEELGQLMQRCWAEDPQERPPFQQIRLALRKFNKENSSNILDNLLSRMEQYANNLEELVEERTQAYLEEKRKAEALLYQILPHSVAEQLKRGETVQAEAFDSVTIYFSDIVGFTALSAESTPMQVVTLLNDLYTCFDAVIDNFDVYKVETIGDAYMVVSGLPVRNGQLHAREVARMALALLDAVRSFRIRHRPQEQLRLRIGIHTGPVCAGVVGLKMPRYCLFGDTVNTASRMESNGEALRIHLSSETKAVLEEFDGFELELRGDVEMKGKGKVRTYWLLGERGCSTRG
Description: HEK-293 cells (American Type Culture Collection “ATTC,” Manassas, Va.) were cultured in DMEM/F12 supplemented with 2 mM L-glutamine, 10% FBS, 100 U/ml penicillin, and 100 μg/ml streptomycin. For transient expression, 8×10^5 cells were seeded in 6-wells, cultured for 24 hours, and then transfected using TransIT®-293 (Mirus, Madison, Wis.) according to the manufacturer's instructions. After transfection (48 hours), cells were used to measure intracellular cGMP production. HEK-293 cell clones stably expressing pGloSensor™-40F alone (HEK-cGMP-sensor cells) or in addition, human Npr1 (“hNpr1”) (HEK-hNpr1-cGMP-sensor cells) or human Npr2 (HEK-hNpr2-cGMP-sensor cells) were generated by co-transfection with pEAK8-GFP and selection with 1 μg/ml puromycin. Stable expression of transgenes was verified by measuring ligand-induced cGMP production with the cGMP biosensor.
as §1
Because the Npr1 receptor is a ligand-dependent guanylate cyclase, measuring agonist-induced changes in intracellular cGMP levels was used to examine inhibition of Npr1. To measure the production of cGMP by Npr1, a circular permutated Firefly luciferase molecule which was functionally linked to the cGMP binding domain of human PDE5 (GloSensor™ technology pGS-40F) was used, as described in Example 1. This reporter molecule together with a luciferase substrate (GoSensor™ reagent) and a sensitive method for detection of luciferase activity (emitted light) permitted real-time measurement of cGMP levels in live cells (FIG. 1A). The cGMP sensor was expressed in HEK293 cells and luciferase activity after stimulation with the NO-donor sodium nitroprusside (SNP), which activates ubiquitously expressed soluble guanylate cyclases, was examined. […] Next, mNpr1 and the cGMP sensor were transiently expressed in HEK293 cells and agonist dependent receptor activation was examined. […] Next, the effects of A-71915 on mNpr1 were tested.
For Table 6, HEK-293 cells transiently expressing mNpr1 and pGS-40F were stimulated with 1 nM mNppb 5 minutes after addition of candidate compounds or A-71915 and luminescence was measured for 30 minutes. Inhibitors were titrated to calculate apparent IC50 values, as described in methods.

mice = details: reported; cited from earlier work

| Compound | Effect on hNppa concentration-response at fixed antagonist concentration (hNpr1) | Effect on basal mNpr1 activity in the absence of natriuretic peptides (mNpr1) | Block of acute itch responses elicited by intradermal pruritogens (mice) |
| --- | --- | --- | --- |
| 1-cyclohexyl-3-(cyclopropylmethyl)-N-((3-methylisoxazol-5-yl)methyl)-2-oxo-2,3-dihydro-1H-benzo[d]imidazole-5-carboxamide [JS-11] | reduced maximal responses even at extremely high hNppa concentrations |  |  |
| CC[C@H](C)[C@@H]1NC(=O)[C@H](CCCNC(=N)N)NC(=O)CNC(=O)CNC(=O)[C@H](CC2CCCCC2)NC(=O)[C@@H](NC(=O)[C@@H](N)CCCNC(=N)N)CSSC[C@@H](C(N)=O)NC(=O)[C@H](CCCNC(=N)N)NC(=O)[C@H]2Cc3ccccc3CN2C(=O)[C@H]([C@@H](C)CC)NC(=O)[C@H](CCCNC(=N)N)NC(=O)[C@H](CC(=O)O)NC1=O [Compound A-71915, reference compound] (H-RC[Cha]GGRIDRI[dTic]RC-NH2; disulfide 2-13; N-terminus and C-terminus assumed) | right-shift in hNppA potency without any effect on maximal efficacy | partial agonist; also recorded: directly stimulates basal mNpr1 activity | does not block acute itch responses |
